Activity calls are given as the source filed them. No cut-off for these calls is given here. Where a SMILES comes first, the peptide text is derived from it. The star is where a group is joined. X3 = C/C(=C/C*)CC/C=C(\C)COCc1cccc(C(=O)c2ccccc2)c1; X2 = C/C(=C/C*)COCc1cccc(C(=O)c2ccccc2)c1; X1 = CC(C)=CCC/C(C)=C/CC/C(C)=C\C*
What was measured:
Type in all cases: functional, organism-based
Saccharomyces cerevisiae [1] = experiment: Growth arrest against Saccharomyces cerevisiae RC757 assessed as zone of inhibition after overnight incubation
Saccharomyces cerevisiae [2] = experiment: Growth arrest against Saccharomyces cerevisiae LM102 assessed as zone of inhibition after overnight incubation
Saccharomyces cerevisiae [3] = experiment: Growth arrest against Saccharomyces cerevisiae RC757 assessed as zone of inhibition at 0.25 ng after overnight incubation
Saccharomyces cerevisiae [4] = experiment: Growth arrest against Saccharomyces cerevisiae RC757 assessed as zone of inhibition at 0.50 ng after overnight incubation

**Q.** What does the source list for `CC[C@H](C)[C@H](NC(=O)[C@@H](NC(=O)[C@@H](N)Cc1ccc(O)cc1)[C@@H](C)CC)C(=O)N[C@@H](CCCCN)C(=O)NCC(=O)N[C@H](C(=O)N[C@@H](Cc1ccccc1)C(=O)N[C@@H](Cc1c[nH]c2ccccc12)C(=O)N[C@@H](CC(=O)O)C(=O)N1CCC[C@H]1C(=O)N[C@@H](C)C(=O)N[C@@H](CSC/C=C(/C)CC/C=C(\C)CCC=C(C)C)C(=O)OC)C(C)C` (H-YIIKGVFWDPAC(X1)-OMe)?
**A.** inhibition zone (IZ) (Saccharomyces cerevisiae [1]): Active; inhibition zone (IZ) (Saccharomyces cerevisiae [2]): inactive

**Q.** `CC[C@H](C)[C@H](NC(=O)[C@@H](NC(=O)[C@@H](N)Cc1ccc(O)cc1)[C@@H](C)CC)C(=O)N[C@@H](CCCCN)C(=O)NCC(=O)N[C@H](C(=O)N[C@@H](Cc1ccccc1)C(=O)N[C@@H](Cc1c[nH]c2ccccc12)C(=O)N[C@@H](CC(=O)O)C(=O)N1CCC[C@H]1C(=O)N[C@@H](C)C(=O)N[C@@H](CSC/C=C(/C)COCc1cccc(C(=O)c2ccccc2)c1)C(=O)OC)C(C)C` (H-YIIKGVFWDPAC(X2)-OMe) was tested. Which “inhibition zone (IZ)” value (Saccharomyces cerevisiae [3]) did it give?
**A.** Active

**Q.** With `CC[C@H](C)[C@H](NC(=O)[C@@H](NC(=O)[C@@H](N)Cc1ccc(O)cc1)[C@@H](C)CC)C(=O)N[C@@H](CCCCN)C(=O)NCC(=O)N[C@H](C(=O)N[C@@H](Cc1ccccc1)C(=O)N[C@@H](Cc1c[nH]c2ccccc12)C(=O)N[C@@H](CC(=O)O)C(=O)N1CCC[C@H]1C(=O)N[C@@H](C)C(=O)N[C@@H](CSC/C=C(/C)CC/C=C(\C)COCc1cccc(C(=O)c2ccccc2)c1)C(=O)OC)C(C)C` (H-YIIKGVFWDPAC(X3)-OMe) as the molecule, how does the “inhibition zone (IZ)” value (Saccharomyces cerevisiae [4]) read?
**A.** Active

Reference: ChEMBL document CHEMBL1649397, “Synthesis of a-factor peptide from Saccharomyces cerevisiae and photoactive analogues via Fmoc solid phase methodology” (Bioorg Med Chem, 2011)
